Test results from patent US9610274B2, “Methods for treating bipolar disorder” (priority 2010, dated 2017).

Key:
Assay type in all cases: in vivo
wild-type mice = experiment: Spontaneous activity in the open field, wild-type mice; conditions: WT mice; amphetamine 2 mg/kg SC; relative to vehicle
Protocol: Male and female wild-type and homozygous mutant dopamine transporter KO mice (n˜10 mice/genotype/agent; produced by in vivo homologous recombination and bred at Duke University Medical Center, Durham, N.C.) were tested for spontaneous activity in the open field following a single injection of the vehicle or compound. Mice were placed into the open field for 30 min and administered SC the vehicle (sterile water), 2 mg/kg amphetamine, or three concentrations of the test compound (10, 30, 100 mg/kg). All drugs were given in a volume of 5 mL/kg. Animals were returned to the open field for an additional 90 min. Spontaneous activity was evaluated in an automated Omnitech Digiscan apparatus (Accuscan Instruments, Columbus, Ohio). […] Horizontal activity or locomotion was measured in terms of the total distance covered in cm, vertical activity or rearing was expressed in terms of the total numbers of vertical beam breaks, and stereotypy was quantified in terms of repetitive breaks of a given beam or beams with intervals of less than 1 sec. […] Data were analyzed by the Statistical Package for Social Sciences programs (version 11.0 for Windows; SPSS Science, Chicago, Ill.). The results for each dependent variable were analyzed by repeated analyses of variance (RMANOVA) for within subjects effects (group differences over time) and between-subjects effects (tests of main effects and interactions). […]

[1] = system: homozygous mutant dopamine transporter knockout (KO) mice; experiment: Spontaneous activity in the open field, dopamine transporter KO mice; conditions: single SC injection, test compound 10, 30, 100 mg/kg, amphetamine 2 mg/kg, 90 min post-injection, relative to vehicle
Protocol: Male and female wild-type and homozygous mutant dopamine transporter KO mice (n˜10 mice/genotype/agent; produced by in vivo homologous recombination and bred at Duke University Medical Center, Durham, N.C.) were tested for spontaneous activity in the open field following a single injection of the vehicle or compound. […] All drugs were given in a volume of 5 mL/kg. Animals were returned to the open field for an additional 90 min. Spontaneous activity was evaluated in an automated Omnitech Digiscan apparatus (Accuscan Instruments, Columbus, Ohio). Activity was summated at 5 min intervals over the 2 h period of testing. Horizontal activity or locomotion was measured in terms of the total distance covered in cm, vertical activity or rearing was expressed in terms of the total numbers of vertical beam breaks, and stereotypy was quantified in terms of repetitive breaks of a given beam or beams with intervals of less than 1 sec. For the analyses, 10 WT and 10 KO mice were run in each of the treatment groups with approximately equal numbers of males and females assigned to each group. Data were analyzed by the Statistical Package for Social Sciences programs (version 11.0 for Windows; SPSS Science, Chicago, Ill.). The results for each dependent variable were analyzed by repeated analyses of variance (RMANOVA) for within subjects effects (group differences over time) and between-subjects effects (tests of main effects and interactions). Bonferroni corrected pair-wise comparisons were used as the post-hoc tests. A p <0.05 was considered significant.

isolated mice = experiment: Isolation-induced fighting in mice; conditions: Mus musculus
Protocol: Male CD-1 mice (15-20 g) were utilized in this experiment. The test compound (15, 22 and 30 mg/kg) was dissolved in physiological saline (0.9%) and administered orally (PO) in a volume of 1 mL/100 g body weight.
Mice were isolated for up to 8 weeks in individual solid walled wire cages (24×20×17 cm). The animals were not disturbed except to replenish food. Aggression was tested by placing an intruder mouse into the home cage of the resident animal. Aggression was characterized by an attack on the “intruder” during a three minute period. […] Only those resident mice displaying fighting behavior were selected. […] ED50 values were calculated from the percent inhibition of fighting in computer program based on probit analysis.

[2] = system: adult human subjects with moderate or severe major depression without psychotic features; experiment: Randomized double-blind placebo- and active-controlled 6-week study in major depression; conditions: paroxetine 20 mg/day; for MADRS response rate / MADRS remission rate: Week 6; for MADRS response rate: >50% improvement in MADRS total score; for MADRS remission rate: MADRS total score less than 9
Protocol: The primary objective of this study was to determine the efficacy of 2 target doses of test compound (200 and 400 mg/day) in comparison with placebo during 6 weeks of treatment in adult human subjects with moderate or severe major depression without psychotic features. An active comparator (paroxetine) was included to assist in distinguishing a negative study from a failed study. In addition, an exit interview was intended to gather information on unexpected benefits of the test compound in order to refine the clinical development program. […] In addition, positive effects of the test compound on ratings of physical energy/fitness, reduction in sadness or depression and mental energy or motivation.
This was a randomized, double-blind, parallel-group, active, and placebo-controlled, multicenter study conducted in the U.S. (23 centers) and Canada (4 centers). There were 2 phases: a pretreatment phase (screening/washout and a baseline visit) and a 6-week, double-blind treatment phase. Paroxetine, a positive control, was included to evaluate assay sensitivity. After washout (if needed) of prohibited substances, subjects were randomly assigned (1:1:1:1) to receive the test compound titrated to a target dose of 200 mg/day or 400 mg/day, matching placebo, or a fixed dose (20 mg/day) of paroxetine. Study drug was given twice daily for 6 weeks. Efficacy and safety were assessed weekly during the double-blind phase. Subjects completing the study underwent an Exit Interview (“Your Health and Well-Being”) and completed an Assessment of Benefits of Clinical-trial Drug-treatment (ABCD) questionnaire (U.S. sites only).

[3] = ITT (LOCF), change from baseline at Week 6
[4] = Per-Protocol (LOCF), change from baseline at Week 6

CC(N)Cc1ccccc1 (stereo not drawn) [Amphetamine, amphetamine, reference compound]
spontaneous activity (locomotor, rearing and stereotypical activities) (wild-type mice): increased locomotor, rearing and stereotypical activities in WT mice | spontaneous activity (locomotor, rearing and stereotypical activities) [1]: decreased them in KO animals

CN(C)CCCN1c2ccccc2CCc2ccccc21 [Imipramine, imipramine, reference compound]
inhibition at 15 mg/kg (isolated mice; 1 h, 15 mg/kg PO, 60 min after dosing): 20% | inhibition at 30 mg/kg (isolated mice; 1 h, 30 mg/kg PO, 60 min after dosing): 50% | ED50 (isolated mice; PO, inhibition of isolation-induced fighting, probit analysis, read-out: ED50 (mg/kg, PO) (confidence limits)): ~30 mg/kg

Fc1ccc([C@@H]2CCNC[C@H]2COc2ccc3c(c2)OCO3)cc1 [Paroxetine, paroxetine, reference compound]
MADRS response rate ([2]; ITT (LOCF)): 48% | MADRS remission rate ([2]; ITT (LOCF)): 26% | 3 Atypical items of HAM-D 31, mean result [2, 3]: −0.6 | CGI-S score, mean result [2, 3]: −1.5 | MADRS core mood subscale, mean result [2, 3]: −9.7 | MADRS sadness (Items 1 + 2), mean result [2, 3]: −3.9 | MADRS total score (primary), mean result [2, 3]: −14.1 | superiority to placebo on the primary endpoint (change from baseline at Week 6 in MADRS total score) ([2]; ITT (LOCF), test compound 200 mg and 400 mg): statistically significant superiority to placebo | MADRS response rate ([2]; Per-Protocol (LOCF)): 60% | MADRS remission rate ([2]; Per-Protocol (LOCF)): 35% | CGI-S score, mean result [2, 4]: −1.9 | MADRS total score, mean result [2, 4]: −17.1 | ABCD questionnaire items with statistically significant superiority to placebo ([2]; post hoc analyses, of 51 items, U.S. sites): 14 items
